{"source": "ChEMBL document CHEMBL1149864", "about": "“Benzofused N-substituted cyclic enediynes: activation and DNA-cleavage potential” (Bioorg Med Chem, 2008)", "key": {"[1]": {"assay": "Chemical stability assessed as half life at 60 degC", "assay_type": "physicochemical"}, "[2]": {"assay": "Chemical stability assessed as half life at 70 degC", "assay_type": "physicochemical"}, "[3]": {"system": "Escherichia coli", "assay": "Induction of Escherichia coli pBluescript SK+ DNA cleavage assessed as generation of form 3 at 20 uM at pH 8.0 after 48 hrs"}, "[4]": {"system": "Escherichia coli", "assay": "Induction of Escherichia coli pBR322 DNA cleavage at 0.4 uM at pH 8.5 after 24 hrs"}, "[5]": {"assay": "Chemical stability assessed as half life at 50 degC", "assay_type": "physicochemical"}, "[6]": {"system": "Escherichia coli", "assay": "Induction of Escherichia coli pBR322 DNA cleavage at 0.4 uM at pH 7.5 after 24 hrs"}, "[7]": {"system": "Escherichia coli", "assay": "Induction of Escherichia coli pBluescript SK+ DNA cleavage assessed as generation of form 3 at 20 uM at pH 8.0 after 12 hrs"}, "[8]": {"system": "Escherichia coli", "assay": "Induction of Escherichia coli pBR322 DNA cleavage at 0.4 uM at pH 8.0 after 24 hrs"}, "[9]": {"system": "Escherichia coli", "assay": "Induction of Escherichia coli pBR322 DNA cleavage assessed as generation of form 3 at 20 uM at pH 8.0 after 12 hrs"}, "[10]": {"system": "Escherichia coli", "assay": "Induction of Escherichia coli pBR322 DNA cleavage assessed as generation of form 3 at 20 uM at pH 8.0 after 24 hrs"}, "[11]": {"assay": "Chemical stability assessed as half life at 30 degC", "assay_type": "physicochemical"}, "[12]": {"system": "Escherichia coli", "assay": "Induction of Escherichia coli pBR322 DNA cleavage assessed as generation of form 3 at 20 uM at pH 8.0 after 48 hrs"}}, "note": "Calls of active or inactive are those of the source. The calls are words filed in the database; no cut-off is given here."}
{"smiles": "O=[N+]([O-])c1ccc(S(=O)(=O)N2CC#Cc3ccc([N+](=O)[O-])cc3C#CCC2)cc1", "values": [{"measurement": "half-life", "setting": "[1]", "result": 138, "unit": "h"}, {"measurement": "half-life", "setting": "[2]", "result": 12, "unit": "h"}]}
{"smiles": "C1#Cc2ccccc2C#CCNCC1.Cc1ccc(S(=O)(=O)O)cc1", "values": [{"measurement": "Activity", "setting": "[3]", "result": "inactive"}, {"measurement": "Activity", "setting": "[4]", "result": "Active"}, {"measurement": "half-life", "setting": "[5]", "result": 130, "unit": "h"}, {"measurement": "Activity", "setting": "[6]", "result": "Active"}, {"measurement": "Activity", "setting": "[7]", "result": "inactive"}, {"measurement": "Activity", "setting": "[8]", "result": "Active"}, {"measurement": "Activity", "setting": "[9]", "result": "Active"}, {"measurement": "Activity", "setting": "[10]", "result": "Active"}, {"measurement": "half-life", "setting": "[11]", "result": 770, "unit": "h"}]}
{"smiles": "O=[N+]([O-])c1ccc2c(c1)C#CCCNCC#C2", "values": [{"measurement": "Activity", "setting": "[12]", "result": "Active"}, {"measurement": "Activity", "setting": "[10]", "result": "Active"}]}
{"smiles": "O=[N+]([O-])c1ccc(S(=O)(=O)N2CC#Cc3cc([N+](=O)[O-])c([N+](=O)[O-])cc3C#CCC2)cc1", "values": [{"measurement": "half-life", "setting": "[2]", "result": 9.5, "unit": "h"}]}
{"smiles": "Cc1ccc(S(=O)(=O)N2CC#Cc3ccccc3C#CCC2)cc1", "values": [{"measurement": "half-life", "setting": "[2]", "result": 48, "unit": "h"}]}
